Results reported in BindingDB's records for patent US20250099442 (Prothena Biosciences, 2025).

The molecules below were run against Dual specificity tyrosine-phosphorylation-regulated kinase 1A (Homo sapiens, UniProt Q13627) (assay: DYRK1A Inhibition Assay).
Description: Assay Procedure1. Add 5 μL enzyme & substrate mixture to each well in Column 2-23 and A24-H24 wells of the 384-well assay plate;2. Add 5 μL 0% Phosphorylation control to A1-H1 and I24-P24 wells of the assay plate;3. Add 5 μL 100% Phosphorylation control to I1-P1 wells of the assay plate;4. Spin the assay plate (1000 rpm, 1 minute @23° C.);5. Incubate enzyme with compounds for 15 minutes at 23° C.;6. Add 5 μL ATP solution to each well of the assay plate;7. Spin the plate (1000 rpm, 1 minute @23° C.);8. Incubate the assay plate for 90 minutes at 23° C.;9. Add 10 μL Development reagent A to each well of the assay plate;10. Centrifuge the plate at 1000 rpm about 15 seconds and seal a film over assay plate. Incubate the assay plate for 30 minutes at 23° C.11. Read assay plates on Envision

Row | IC50 [nM] | SMILES
1 | > 1000 | CN1CCC(C2CN(c3ncc(-c4ccncc4)c4c3C(=O)NC4)C2)CC1 [US20250099442, Compound I.89]
2 | 10 to 100 | CN1CCC(C(=O)Nc2cn3cc(-c4ccncc4)cc3cn2)CC1 [US20250099442, Compound I.59]
3 | 100 to 1000 | CS(=O)(=O)N1CCC[C@@H](n2cnc3ccc(-c4ccncc4)cc32)C1 [US20250099442, Compound I.22]
4 | 10 to 100 | CC(=O)N1CCC(n2cnc3ccc(-c4ccncc4)cc32)CC1 [US20250099442, Compound I.38]
5 | 10 to 100 | CCCOc1cc(COC2CCN(C)CC2)nc2[nH]cc(-c3ccncc3)c12 [US20250099442, Compound I.85]
6 | 10 to 100 | CN1CCC(C(=O)N2CCn3c(nc4ccc(-c5ccncc5)cc43)C2)CC1 [US20250099442, Compound I.64]
7 | < 10 | CN1CCC(C(=O)Nc2nc3ccc(-c4ccncc4)cc3s2)CC1 [US20250099442, Compound I.14]
8 | < 10 | CN1CCC(C(=O)Nc2cc(-c3ccc4c(c3)ncn4C)ccn2)CC1 [US20250099442, Compound I.34]
9 | 10 to 100 | CS(=O)(=O)N1CCC(n2cnc3ccc(-c4ccncc4)cc32)CC1 [US20250099442, Compound I.32]
10 | < 10 | CN1CCC(C(=O)Nc2nc3ccc(-c4ccncc4)nc3s2)CC1 [US20250099442, Compound I.51]

Continued, molecule first:

Row | SMILES | IC50 [nM]
11 | c1cc(-c2ccc3ncsc3c2)c(OC2CCC2)cn1 [US20250099442, Compound I.83] | 100 to 1000
12 | CC(C)CN1CCC(C(=O)Nc2cc(-c3ccc4c(cnn4C)c3)ccn2)CC1 [US20250099442, Compound I.17] | 10 to 100
13 | c1cc(-c2ccc3ncn(C4CCNCC4)c3c2)ccn1 [US20250099442, Compound I.31] | 100 to 1000
14 | CC(C)CN1CCC(CNc2cc(-c3c[nH]c4cnccc34)ccn2)CC1 [US20250099442, Compound I.5] | 10 to 100
15 | CCN1CCC(C(=O)Nc2cc(-c3ccc4c(c3)ncn4C(F)F)ccn2)CC1 [US20250099442, Compound I.94] | > 1000
16 | Cc1c(C#CC2CCOCC2)nc2ccc(-c3ccncc3)cn12 [US20250099442, Compound I.76] | 10 to 100
17 | CN1CC2CC(C1)C2C(=O)Nc1nc2ccc(-c3ccncc3)cc2s1 (centres undefined) [US20250099442, Compound I.52] | 100 to 1000
18 | COc1cc(-c2ccc3nc(NC(=O)c4cccc(C#N)c4)sc3n2)ccn1 [US20250099442, Compound I.71] | < 10
19 | CCOc1cc(-c2ccc3nc(NC(=O)[C@H]4CCCN(C)C4)sc3c2)ccn1 [US20250099442, Compound I.61] | 100 to 1000
20 | O=C(Nc1cc2cc(-c3ccncc3)cn2cn1)C1CCOCC1 [US20250099442, Compound I.63] | 10 to 100
21 | CN1CC(C(=O)Nc2nc3ccc(-c4ccncc4)cc3s2)C1 [US20250099442, Compound I.45] | 10 to 100
22 | COc1ccc(CN2Cc3ncc(-c4ccc(C#N)cc4)n3CC2=O)cc1 [US20250099442, Compound I.82] | > 1000
23 | OC1(C#Cc2ccc3c(-c4ccncc4)c[nH]c3n2)CCNCC1 [US20250099442, Compound I.95] | 100 to 1000
24 | c1cc(-c2ccc3ncn(C4CCCNC4)c3c2)ccn1 (centres undefined) [US20250099442, Compound I.19] | 10 to 100
25 | O=C(OCc1ccccc1)N1CCC(n2cnc3ccc(-c4ccncc4)cc32)CC1 [US20250099442, Compound I.30] | 10 to 100
26 | CN1CCC(Oc2cnc3[nH]cc(-c4cc[nH]c(=O)c4)c3n2)C1 (centres undefined) [US20250099442, Compound I.88] | 100 to 1000
27 | CN1CC2C(C1)C2C(=O)Nc1cc2cc(-c3ccncc3)cn2cn1 (centres undefined) [US20250099442, Compound I.72] | 10 to 100
28 | c1ccc(Oc2cc(-c3ccc4c(c3)CCO4)ccn2)cc1 [US20250099442, Compound I.10] | > 1000
29 | CC(=O)N1CCCC(n2cnc3ccc(-c4ccncc4)cc32)C1 (centres undefined) [US20250099442, Compound I.23] | 100 to 1000
